For test [1], the system named is Mus musculus. Briefly: Inhibition of MEK1-mediated ERK phosphorylation in human HT-29 cells xenografted in nude mouse assessed as plasma concentration required for inhibition at 100 mg/kg, po administered as single dose measured after 1 to 12 hrs by Western blot analysis. The test is classed as functional, organism-based. Details: dose 100 mg/kg, route oral. Particulars: HT-29, Plasma. On the technique in general: In xenograft studies the graft and the host belong to different species.

The subject of test [2] is Mus musculus. Kind of test: Inhibition of MEK1-mediated ERK phosphorylation in human LOX cells xenografted in nude mouse assessed as plasma concentration required for inhibition at 100 mg/kg, po administered as single dose measured after 1 to 12 hrs by Western blot analysis. Details: dose 100 mg/kg, route oral. The test is classed as functional, organism-based.
Test [3] has as its target T1, Dual specificity mitogen-activated protein kinase kinase 1 (Homo sapiens, UniProt Q02750). Kind of test: Inhibition of MEK1 (unknown origin).
Test [4] in a line: Inhibition of yeast Rce1p using yeast a-factor mating pheromone substrate. Details: species or system Saccharomyces cerevisiae.
Test [5] in a line: Inhibition of human Rce1p using quenched fluorogenic substrate by fluorescence assay.
The nature of test [6]: Antitumor activity against human H460 cells xenograft model assessed as increase in host survival at 100 mg/kg, ip relative to solvent control (reference value: 24 days). The format is functional, NCI-H460. Particulars: route intraperitoneal.
The subject of the next test is A549. Kind of test: Cytotoxicity against human A549 cells by SRB assay. The test is classed as functional, cell-based. On the technique in general: Sulforhodamine B stains cellular protein and so reports cell mass.
Test [7] can be described thus: Antitumor activity against human H460 cells xenograft model assessed as tumor growth inhibition at 100 mg/kg, ip relative to solvent control. Particulars: NCI-H460, ip, route intraperitoneal, read-out: TGI. The test is classed as functional.
Another test deals with NCI-H2122. Kind of test: Cytotoxicity against human NCI-H2122 cells by SRB assay. The test is classed as functional, cell-based.
The nature of test [8]: Cytotoxicity against human NCI-H2887 cells by SRB assay. The format is functional, cell-based.
The nature of test [9]: Cytotoxicity against human T29Kt1 cells by SRB assay.
The nature of test [10]: Cytotoxicity against human H460 cells by SRB assay. The test is classed as functional, cell-based. Particulars: NCI-H460.
A short description of test [11]: Inhibition of MEK/ERK (unknown origin). The arrangement: species or system Homo sapiens.
The target of test [12] is RAF proto-oncogene serine/threonine-protein kinase (Homo sapiens, UniProt P04049). Briefly: Inhibition of cRAF (unknown origin) by Caliper assay.
Chain of RAF proto-oncogene serine/threonine-protein kinase (P04049 whole entry): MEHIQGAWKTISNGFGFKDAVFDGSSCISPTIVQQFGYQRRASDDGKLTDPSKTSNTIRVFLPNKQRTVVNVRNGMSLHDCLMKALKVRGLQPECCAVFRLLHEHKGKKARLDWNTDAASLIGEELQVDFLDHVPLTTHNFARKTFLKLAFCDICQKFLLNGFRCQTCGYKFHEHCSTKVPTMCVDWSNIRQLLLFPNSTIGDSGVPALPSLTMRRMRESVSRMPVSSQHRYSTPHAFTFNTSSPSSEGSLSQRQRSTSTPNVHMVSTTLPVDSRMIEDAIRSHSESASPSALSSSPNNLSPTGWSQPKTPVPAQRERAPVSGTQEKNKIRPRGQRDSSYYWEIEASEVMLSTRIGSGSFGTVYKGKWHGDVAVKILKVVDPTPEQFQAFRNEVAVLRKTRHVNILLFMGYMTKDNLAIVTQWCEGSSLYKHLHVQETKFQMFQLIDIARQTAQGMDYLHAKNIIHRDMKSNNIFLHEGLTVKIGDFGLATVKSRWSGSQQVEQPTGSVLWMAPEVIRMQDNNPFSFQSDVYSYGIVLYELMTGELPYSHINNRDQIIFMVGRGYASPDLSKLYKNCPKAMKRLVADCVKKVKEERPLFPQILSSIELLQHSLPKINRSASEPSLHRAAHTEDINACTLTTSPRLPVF
Test [13] can be described thus: Inhibition of cRaf/MEK/ERK (unknown origin). Details: species or system Homo sapiens.
Test [14] concerns the target T1, Dual specificity mitogen-activated protein kinase kinase 1. Kind of test: Non-competitive inhibition of MEK1 (unknown origin) kinase activity using fluorescent peptide as substrate by fluorescence assay in presence of ATP.
The subject of test [15] is MEF. Briefly: Antitumor activity against MEF harboring KRAS G12D mutant allografted in p53-null mouse assessed as reduction in tumor weight relative to control. The test is classed as functional. Details: scale not given: the % may be the effect or the level left.
Test [16] concerns MEF. Kind of test: Cytotoxicity against MEF harboring KRAS G12D mutant by ATP-based cell viability assay. The test is classed as functional. Particulars: Mus musculus.
In test [17] the test system is MEF. Briefly: Antitumor activity against MEF harboring KRAS G12D mutant allografted in p53-null mouse assessed as reduction in tumor volume relative to control. The test is classed as functional. The arrangement: scale not given: the % may be the effect or the level left.
Test [18] addresses T2, GTPase KRas (Homo sapiens, UniProt P01116). Briefly: Inhibition of full-length human KRas4B (amino acids 1 to 188)-SOS interaction assessed as inhibition of SOS-mediated nucleotide release activity.
Test [19] has as its target T2, GTPase KRas. Kind of test: Inhibition of full-length human KRas4B (amino acids 1 to 188)-SOS interaction assessed as inhibition of nucleotide exchange activity.
The test system of test [20] is GTPase KRas (Homo sapiens), P01116 [G12D]. Kind of test: Binding affinity to KRAS G12D mutant (unknown origin).
Chain of GTPase KRas (Homo sapiens), P01116 [G12D] (P01116 whole entry G12D, looked up): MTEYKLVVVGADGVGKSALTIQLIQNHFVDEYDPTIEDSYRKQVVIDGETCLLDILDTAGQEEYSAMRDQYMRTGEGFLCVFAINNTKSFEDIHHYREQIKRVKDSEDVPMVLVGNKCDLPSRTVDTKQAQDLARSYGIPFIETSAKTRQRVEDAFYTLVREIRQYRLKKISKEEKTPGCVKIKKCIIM
The subject of test [21] is DLD-1. Briefly: Selectivity ratio of IC50 for mutant KRAS allele-deficient human DLD1 cells to IC50 for human DLD1 cells harboring mutant KRAS. The test is classed as functional.
In test [22] the test system is DLD-1. Kind of test: Cytotoxicity against human DLD1 cells harboring mutant KRAS. The format is functional, cell-based.
Test [23] concerns DLD-1. Briefly: Cytotoxicity against mutant KRAS allele-deficient human DLD1 cells. The test is classed as functional, cell-based.
For test [24], the system named is DLD-1. Briefly: Antiproliferative activity against human DLD1 cells expressing KRAS mutant at 25 nM. The format is functional.

T1 sequence (Q02750 whole entry): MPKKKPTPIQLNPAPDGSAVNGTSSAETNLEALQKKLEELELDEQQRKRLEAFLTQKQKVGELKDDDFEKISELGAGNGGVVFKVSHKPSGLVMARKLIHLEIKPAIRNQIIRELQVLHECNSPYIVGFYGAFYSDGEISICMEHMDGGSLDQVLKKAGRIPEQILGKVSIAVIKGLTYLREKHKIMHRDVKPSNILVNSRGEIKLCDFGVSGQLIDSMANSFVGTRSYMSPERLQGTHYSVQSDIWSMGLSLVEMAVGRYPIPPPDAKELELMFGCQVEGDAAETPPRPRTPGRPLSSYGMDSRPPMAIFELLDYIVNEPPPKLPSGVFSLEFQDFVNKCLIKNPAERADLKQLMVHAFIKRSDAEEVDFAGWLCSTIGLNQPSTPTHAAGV
T2 sequence (P01116 whole entry, the tested form may be a part): as the sequence (P01116 whole entry G12D, looked up) above, with D12G counted along it

One may read the EC50 as the concentration needed to bring the measured effect to its halfway point. A word on the IC50: it is the point on the concentration scale where inhibition reaches its midpoint. As to `C[C@H](CO)COc1ccc([C@H]2NC(=O)N([C@H](C(=O)Nc3ccc(I)cc3F)[C@@H](C)c3ccccc3)C2=O)cc1`, the EC50 in the test on Mus musculus [1] is 3350 nM; with Mus musculus [2], 1360 nM. In test [3], this compound registered an IC50 of 25 nM.

`NC(=O)c1nnn(Cc2cc(Cl)c(C(=O)c3ccc(Cl)cc3)c(Cl)c2)c1N` [CARBOXYAMIDOTRIAZOLE]: the IC50 in test [4] came to 6000 nM; in test [5], 400 nM.

Regarding `O=Cc1cn(Cc2ccc(Cl)cc2)c2ccccc12`, the Survival in [6] was found to be 32 days. The IC50 with A549 is at most 3000 nM; with NCI-H2122, at most 3000 nM; in [8] it was at most 3000 nM; in test [9], 4810 nM; in [10], at most 3000 nM. In test [7], the inhibition in vivo at 100 mg/kg worked out at 75.4%.

Usually Ki stands for a measure of affinity in units of concentration, obtained from inhibition or displacement. With `CCC(=O)c1csc(NC(=O)[C@H]([C@@H](C)c2ccccc2)N2C(=O)N[C@H](c3ccc(OCCO)cc3)C2=O)n1`, the values for the Ki in test [11], in test [12] and in [13] were 184 nM, above 50000 nM and 53 nM, respectively. Moreover, the IC50 in [14] came out at 23 nM.

For `C[C@H](CN1CCCC1)C(=O)c1ccc(C(F)(F)F)cc1` [LANPERISONE], the Activity in the test on MEF [15] is 37%; in the test with MEF [17], 24%. Moreover, half-maximal inhibition in the test with MEF [16] (IC50) was put at 4000 nM.

On to `CCCC(c1cc(C(C)(C)C)c(O)cc1C)c1cc(C(C)(C)C)c(O)cc1C`, for which the values for the IC50 in [4] and in test [5] were 6000 nM and 400 nM, respectively.

Consider `Cc1[nH]c2cc(Cl)cc(Cl)c2c1CCN`, for which the IC50 was 155000 nM on GTPase KRas [18] and 342000 nM at GTPase KRas [19].

As to `Cc1[nH]c2ccccc2c1Cc1nc2ccccc2[nH]1`, the Activity in test [20] was 1.3 mM.

As for `O=C(O)c1ccc(NC(c2ccccc2)c2ccc3cccnc3c2O)cc1` (stereo unspecified), the IC50 in test [4] was 6000 nM; in test [5], 400 nM.

Turning to `c1ccc(-c2nn(-c3ccccc3)[n+](-c3ccccc3)n2)cc1`, in the test with DLD-1 [21], the “Ratio IC50” value came out at 6. Moreover, the figures for the IC50 in the test on DLD-1 [22] and in the test on DLD-1 [23] were 2 µg/mL and 12 µg/mL, respectively.

By inhibition is commonly meant the percentage by which the read-out fell short of the control. For `CC[C@@H]1C(=O)N(C)c2cnc(Nc3ccc(C(=O)NC4CCN(C)CC4)cc3OC)nc2N1C1CCCC1` [BI-2536], the inhibition at 0.025 µM with DLD-1 [24] is above 50%.

For the compound `CC[C@H](C)[C@H](N)C(=O)Nc1ccc2nc(Cc3c[nH]c4ccccc34)[nH]c2c1`, the Activity in [20] turned out to be 0.19 mM.

The values above are taken from ChEMBL document CHEMBL2396593, “Targeting mutant KRAS for anticancer therapeutics: a review of novel small molecule modulators” (J Med Chem, 2013).
